In ChEMBL document CHEMBL3745618, “Identification of Non-nucleoside Human Ribonucleotide Reductase Modulators” (J Med Chem, 2015) one finds IC50, Activity and ED data, which are given here for eleven compounds.

Non-standard residues stand in square brackets, D forms with d. Residues, ends and D or L forms follow the SMILES beside them. Sar = CNCC(=O)O

Broadly, the IC50 is the concentration needed to halve the response being measured. A high value points to weaker potency.

The target of assay [1] is T1, Ribonucleoside-diphosphate reductase large subunit (Homo sapiens, UniProt P23921).
T1 sequence (P23921 whole entry): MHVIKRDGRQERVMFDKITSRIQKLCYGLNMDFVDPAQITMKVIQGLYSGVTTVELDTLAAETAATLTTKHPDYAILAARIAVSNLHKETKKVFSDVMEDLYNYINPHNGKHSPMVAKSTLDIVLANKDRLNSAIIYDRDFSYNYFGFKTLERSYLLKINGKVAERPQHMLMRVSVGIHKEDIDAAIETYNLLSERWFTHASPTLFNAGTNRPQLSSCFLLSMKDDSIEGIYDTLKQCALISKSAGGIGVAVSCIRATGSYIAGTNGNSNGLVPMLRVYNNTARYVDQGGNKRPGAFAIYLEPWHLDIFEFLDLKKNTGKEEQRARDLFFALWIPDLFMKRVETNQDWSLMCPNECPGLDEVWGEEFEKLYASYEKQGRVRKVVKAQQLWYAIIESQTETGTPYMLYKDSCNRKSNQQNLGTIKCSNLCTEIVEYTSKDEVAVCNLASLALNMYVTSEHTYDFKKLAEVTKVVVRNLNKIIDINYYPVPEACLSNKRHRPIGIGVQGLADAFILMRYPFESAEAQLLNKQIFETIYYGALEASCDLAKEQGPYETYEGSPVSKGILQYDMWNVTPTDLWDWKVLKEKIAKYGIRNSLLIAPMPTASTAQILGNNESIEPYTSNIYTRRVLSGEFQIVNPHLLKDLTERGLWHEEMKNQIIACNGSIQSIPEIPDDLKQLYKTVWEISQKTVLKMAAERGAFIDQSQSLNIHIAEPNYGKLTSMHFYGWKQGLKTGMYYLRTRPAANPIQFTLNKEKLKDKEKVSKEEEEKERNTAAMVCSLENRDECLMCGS
As to the kind of experiment: Inhibition of human ribonucleotide reductase M1 subunit expressed in Escherichia coli BL21 (DE3) using 14C-ADP as substrate by liquid scintillation counting analysis.

In assay [2] the test system is MDA-MB-231. As to the kind of experiment: Growth inhibition of human MDA-MB-231 cells assessed as 1-relative growth at 1 uM after 3 days by DNA dye binding assay. Type of assay: functional.
Assay [3] in a line: Growth inhibition of human HCT116 cells assessed as 1-relative growth at 1 uM after 3 days by DNA dye binding assay. In kind it is functional, HCT-116.
Assay [4] concerns MDA-MB-231. As to the kind of experiment: Growth inhibition of human MDA-MB-231 cells assessed as 1-relative growth at 10 uM after 3 days by DNA dye binding assay. In kind it is functional.
A short description of assay [5]: Growth inhibition of human HCT116 cells assessed as 1-relative growth at 10 uM after 3 days by DNA dye binding assay. Type of assay: functional, HCT-116.
For assay [6], the system named is MDA-MB-231. As to the kind of experiment: Potentiation of gemcitabine-induced cytotoxicity against human MDA-MB-231 assessed as effective dose of gemcitabine at 2.5 uM after 72 hrs MTT assay (reference value: 0.92 uM). In kind it is functional. Background: Tetrazolium assays rely on reduction of a dye to a coloured formazan, in cell work by metabolically active cells.

Compound `NC(=O)NO` [HYDROXYUREA] gave an IC50 in assay [1] of 997 µM.

With `CCC(C)(C)c1ccc(OCCCCNC(=O)c2cc(Oc3ccc([N+](=O)[O-])cc3)c3ccccc3c2O)c(C(C)(C)CC)c1`, the Activity with MDA-MB-231 [2] worked out at 0.038; in assay [3] it was 0.038; in the assay on MDA-MB-231 [4], 0.398.

For `CCCOc1ccc(C(=O)OCCN(CC)CC)cc1NS(=O)(=O)/C=C/c1ccccc1`, the Activity in the assay with MDA-MB-231 [2] is recorded as -0.033; in assay [5] it was 0.043; in assay [3], -0.033; in the assay on MDA-MB-231 [4], 0.043.

For the compound `CCOC(=O)C(NC(=O)CN[C@H]1CCCc2sccc21)C(=O)OCC`, the Activity with MDA-MB-231 [2] is listed as -0.199; in the assay on MDA-MB-231 [4], 0.531.

For the compound `CCCCCCCCCCCCCCNC(=O)[C@@H](N)CCN`, the Activity in the assay with MDA-MB-231 [2] is on record as 0.072; in assay [5], 0.69; in assay [3], 0.072; in the assay on MDA-MB-231 [4] it was 0.69.

With `CC(C)(NC(=O)CN1C(=O)c2ccccc2C1=O)C(=O)NCCCC[C@H](NC(=O)CC(O)(C(F)(F)F)C(F)(F)F)C(=O)O`, the Activity in the assay with MDA-MB-231 [2] was 0.057; in assay [3], 0.057; with MDA-MB-231 [4], 0.608.

On to `CCOC(=O)C[C@@H](CC(=O)NCCN[C@H](C)c1ccc(O)c(C(=O)OC)c1)OC(C)=O`, for which the Activity with MDA-MB-231 [2] is on record as 0.098; in assay [5] it was 0.096; in assay [3], 0.098; in the assay on MDA-MB-231 [4], 0.096.

On to `CC(NCCCCCO)c1cc(OCc2ccccc2)cc(OCc2ccccc2)c1` (stereo unspecified), for which the Activity in the assay with MDA-MB-231 [2] is given as -0.076; in assay [5], 0.036; in assay [3], -0.076; in the assay with MDA-MB-231 [4], 0.036.

For the compound `CNCC(=O)N[C@@H](CCCNC(=N)N)C(=O)N[C@H](C(=O)N[C@@H](Cc1ccc(O)cc1)C(=O)N[C@H](C(=O)N[C@@H](Cc1cnc[nH]1)C(=O)O)C(C)C)C(C)C` (H-[Sar]RVYVH-OH), the Activity in the assay with MDA-MB-231 [2] is 0.108; in assay [5] it was 0.158; in assay [3], 0.108; in the assay on MDA-MB-231 [4] it was 0.158.

On to `CCCCCCCCCCCCCCCC(=O)N[C@@H](CCCCN)C(=O)N[C@@H](CCCCN)C(=O)OC`, for which the Activity in the assay with MDA-MB-231 [2] is listed as -0.219; in assay [5], -0.089; in the assay with MDA-MB-231 [4], -0.089.

`OC(COc1ccc(OCC(O)CN2CCN(C3c4ccccc4-c4ccccc43)CC2)cc1)CN1CCN(C2c3ccccc3-c3ccccc32)CC1` (stereo unspecified): the Activity with MDA-MB-231 [2] is listed as -0.396; in assay [5] it was 0.88; in the assay on MDA-MB-231 [4] it was 0.88. Further, in the assay on MDA-MB-231 [6], the ED was determined as 0.1 µM.
